Results reported in US9458145B2, “Benzimidazole derivatives as bromodomain inhibitors” (Gilead Sciences, Inc., priority 2013, dated 2016).
pIC50: −log10 of the molar value. Read-outs that look alike come from different tables or passages of the source.

Tested on: MT-4 cells
Assay: MT-4 proliferation assay
Format: cell-based, human
Details: for pIC50: Table 1, 5 days, Cell Titer Glo, method text calls it EC50, read-out: MT4 Assay, (IC50)
Protocol: MT-4 Proliferation Assay:
Compounds were tested in a standardized high-throughput 384-well assay format. Each compound was serially diluted 3-fold in 100% DMSO in polypropylene 384-well plates using a Biomek FX Workstation, and 0.4 μL compound added to an assay plate containing 40 μL RPMI media. Compounds were arranged in a horizontal pattern, with 10 concentrations per compound, and 8 compounds added per plate. Due to low DMSO tolerability, the final DMSO concentration never exceeded 0.5% (v/v). Each assay plate contained 10 μM Puromycin and 0.5% DMSO in RPMI-1640 as positive and negative controls respectively. MT-4 cells (HTLV-1 transformed, human T lymphoblastoid cells, NIH Aids Reagent program) were added in volumes of 35 μL per well and 2,000 cells per well using a Biotek uFlow Workstation (Biotek, Winooski, Vt.), and the plates subsequently incubated for 5 days at 37° C. in an incubator set at 5% CO2 and 90% humidity.
After 5 days, 22 μL Cell Titer Glo (Promega) was added to the assay plates with a Biotek uFlow Workstation. Plates were subsequently placed on a Perkin Elmer Envision Plate Reader for 5 minutes before the luminescence signal was read.

Row | SMILES | pIC50 (Homo sapiens, MT4, 120 h) | also measured
1 | CCC(O)(CC)c1cc(-c2c(C)noc2C)cc2c1nc(C1CC1)n2C [Compound 1020-132, 3-(2-Cyclopropyl-6-(3,5-dimethylisoxazol-4-yl)-1-methyl-1H-benzo[d]imidazol-4-yl)pentan-3-ol] | 6.26 | –
2 | Cc1noc(C)c1-c1cc(-c2cccnc2-c2ccccc2)c2nc(C3CC3)[nH]c2c1 [Compound 1020-19, 4-(2-Cyclopropyl-4-(2-phenylpyridin-3-yl)-1H-benzo[d]imidazol-6-yl)-3,5-dimethylisoxazole] | 7.61 | –
3 | Cc1ccnc(C)c1-c1cc(-c2c(C)noc2C)cc2[nH]cnc12 [Compound 1020-84, 4-(4-(2,4-Dimethylpyridin-3-yl)-1H-benzo[d]imidazol-6-yl)-3,5-dimethylisoxazole] | 6.63 | –
4 | Cc1n[nH]c(C)c1-c1cc(-c2c(C)noc2C)cc2nc(N)[nH]c12 [Compound 1020-96, 4-(3,5-Dimethyl-1H-pyrazol-4-yl)-6-(3,5-dimethylisoxazol-4-yl)-1H-benzo[d]imidazol-2-amine] | 6.50 | –
5 | Cc1noc(C)c1-c1cc(C(C)c2ccc(F)cc2)c2[nH]c(C3CC3)nc2c1 (stereo not shown) [Compound 1020-44, 4-(2-Cyclopropyl-4-(1-(4-fluorophenyl)ethyl)-1H-benzo[d]imidazol-6-yl)-3,5-dimethylisoxazole] | 7.06 | –
6 | Cc1noc(C)c1-c1cc(C(O)(c2ccccc2)c2ccccc2)c2nc(C3CC3)[nH]c2c1 [Compound 1020-102, (2-Cyclopropyl-6-(3,5-dimethylisoxazol-4-yl)-1H-benzo[d]imidazol-4-yl)diphenylmethanol] | 7.30 | –
7 | Cc1n[nH]c(C)c1-c1cc(-c2c(C)noc2C)cc2nc(C3CC3(F)F)[nH]c12 (stereo not shown) [Compound 1020-78, 4-(2-(2,2-Difluorocyclopropyl)-7-(3,5-dimethyl-1H-pyrazol-4-yl)-1H-benzo[d]imidazol-5-yl)-3,5-dimethylisoxazole] | 7.59 | –
8 | Cc1nc2cc(-c3c(C)noc3C)cc(-c3c(C)n[nH]c3C)c2[nH]1 [Compound 1020-77, 4-(7-(3,5-Dimethyl-1H-pyrazol-4-yl)-2-methyl-1H-benzo[d]imidazol-5-yl)-3,5-dimethylisoxazole] | 7.40 | –
9 | Cc1ccc2ncccc2c1-c1cc(-c2c(C)noc2C)cc2[nH]c(C(F)(F)F)nc12 [Compound 1020-92, 3,5-Dimethyl-4-(4-(6-methylquinolin-5-yl)-2-(trifluoromethyl)-1H-benzo[d]imidazol-6-yl)isoxazole] | 7.14 | –
10 | Cc1ccc2ncccc2c1-c1cc(-c2c(C)noc2C)cc2[nH]c(-c3cnn(C)c3)nc12 [Compound 1020-88, 3,5-Dimethyl-4-(2-(1-methyl-1H-pyrazol-4-yl)-4-(6-methylquinolin-5-yl)-1H-benzo[d]imidazol-6-yl)isoxazole] | 7.34 | –
11 | Cc1n[nH]c(C)c1-c1cc(-c2c(C)noc2C)cc2[nH]c(NCC3CC3)nc12 [Compound 1020-79, N-(Cyclopropylmethyl)-4-(3,5-dimethyl-1H-pyrazol-4-yl)-6-(3,5-dimethylisoxazol-4-yl)-1H-benzo[d]imidazol-2-amine] | 7.47 | –
12 | Cc1noc(C)c1-c1cc(NC2CCCC2)c2nc(C3CC3)[nH]c2c1 [Compound 1020-50, N-Cyclopentyl-2-cyclopropyl-6-(3,5-dimethylisoxazol-4-yl)-1H-benzo[d]imidazol-4-amine] | 6.45 | –
13 | Cc1cnn(C)c1-c1cc(-c2c(C)noc2C)cc2nc(C3CC3)[nH]c12 [Compound 1020-12, 4-(2-Cyclopropyl-7-(1,4-dimethyl-1H-pyrazol-5-yl)-1H-benzo[d]imidazol-5-yl)-3,5-dimethylisoxazole] | 7.67 | –
14 | Cc1noc(C)c1-c1cc(C(O)C2CCCC2)c2nc(C3CC3)[nH]c2c1 (stereo not shown) [Compound 1020-121, Cyclopentyl(2-cyclopropyl-6-(3,5-dimethylisoxazol-4-yl)-1H-benzo[d]imidazol-4-yl)methanol] | 7.37 | –
15 | COc1nc2c(-c3c(C)ccc4ncccc34)cc(-c3c(C)noc3C)cc2[nH]1 [Compound 1020-90, 4-(2-methoxy-4-(6-methylquinolin-5-yl)-1H-benzo[d]imidazol-6-yl)-3,5-dimethylisoxazole] | 7.60 | –
16 | Cc1noc(C)c1-c1cc(/C=C/c2ccccc2)c2[nH]c(C3CC3)nc2c1 [Compound 1020-37, (E)-4-(2-cyclopropyl-4-styryl-1H-benzo[d]imidazol-6-yl)-3,5-dimethylisoxazole] | 6.29 | –

Row | SMILES | pIC50 (Homo sapiens, MT4, 120 h) | also measured
17 | Cc1noc(C)c1-c1cc(S(=O)(=O)NC2CCCC2)c2nc([S+](C)[O-])[nH]c2c1 (stereo not shown) [Compound 1020-5, N-Cyclopentyl-6-(3,5-dimethylisoxazol-4-yl)-2-(methylsulfinyl)-1H-benzo[d]imidazole-4-sulfonamide] | – | IC50 (Homo sapiens, MT4, 120 h, read-out: MT4 Assay, (IC50, nM)): 329 nM
18 | Cc1n[nH]c(C)c1-c1cc(-c2c(C)noc2C)cc2[nH]c(C3CCC3)nc12 [Compound 1020-75, 4-(2-Cyclobutyl-4-(3,5-dimethyl-1H-pyrazol-4-yl)-1H-benzo[d]imidazol-6-yl)-3,5-dimethylisoxazole] | – | pIC50: 7.74
19 | Cc1ccnc(C)c1-c1cc(-c2c(C)noc2C)cc2nc(C3CC3)[nH]c12 [Compound 1020-57, 4-(2-Cyclopropyl-7-(2,4-dimethylpyridin-3-yl)-1H-benzo[d]imidazol-5-yl)-3,5-dimethylisoxazole] | 7.87 | –
20 | CSc1nc2c(S(=O)(=O)NC3CCCC3)cc(-c3c(C)noc3C)cc2[nH]1 [Compound 1020-4, N-Cyclopentyl-6-(3,5-dimethylisoxazol-4-yl)-2-(methylthio)-1H-benzo[d]imidazole-4-sulfonamide] | 6.72 | –
21 | Cc1ccc2ncccc2c1-c1cc(-c2c(C)noc2C)cc2nc(C3CC3)n(C)c12 [Compound 1020-74, 4-(2-Cyclopropyl-1-methyl-7-(6-methylquinolin-5-yl)-1H-benzo[d]imidazol-5-yl)-3,5-dimethylisoxazole] | 7.82 | –
22 | Cc1ccc2ncccc2c1-c1cc(-c2c(C)noc2C)cc2[nH]c(C(O)CCO)nc12 (stereo not shown) [Compound 1020-89, 1-(6-(3,5-dimethylisoxazol-4-yl)-4-(6-methylquinolin-5-yl)-1H-benzo[d]imidazol-2-yl)propane-1,3-diol] | 6.98 | –
23 | CCC1CCC(=O)N1c1cc(-c2c(C)noc2C)cc2[nH]c(C3CC3)nc12 (stereo not shown) [Compound 1020-137, 1-(2-Cyclopropyl-6-(3,5-dimethylisoxazol-4-yl)-1H-benzo[d]imidazol-4-yl)-5-ethylpyrrolidin-2-one] | 6.95 | –
24 | Cc1noc(C)c1-c1cc(N2C(=O)CCC2C)c2nc(C3CC3)[nH]c2c1 (stereo not shown) [Compound 1020-136, 1-(2-Cyclopropyl-6-(3,5-dimethylisoxazol-4-yl)-1H-benzo[d]imidazol-4-yl)-5-methylpyrrolidin-2-one] | 6.47 | –
25 | Cc1noc(C)c1-c1cc(S(=O)(=O)NC2CCCC2)c2nc(NCC3CC3)[nH]c2c1 [Compound 1020-1, N-Cyclopentyl-2-(cyclopropylmethylamino)-6-(3,5-dimethylisoxazol-4-yl)-1H-benzo[d]imidazole-4-sulfonamide] | 6.71 | –
26 | Cc1n[nH]c(C)c1-c1cc(-c2c(C)noc2C)cc2[nH]c(NC3CC3)nc12 [Compound 1020-81, N-Cyclopropyl-4-(3,5-dimethyl-1H-pyrazol-4-yl)-6-(3,5-dimethylisoxazol-4-yl)-1H-benzo[d]imidazol-2-amine] | 8.12 | –
27 | Cc1n[nH]c(C)c1-c1cc(-c2c(C)noc2C)cc2nc(C3CC3)n(C)c12 [Compound 1020-72, 4-(2-cyclopropyl-7-(3,5-dimethyl-1H-pyrazol-4-yl)-1-methyl-1H-benzo[d]imidazol-5-yl)-3,5-dimethylisoxazole] | 8.19 | –
28 | CC/C=C(\CC)c1cc(-c2c(C)noc2C)cc2nc(C3CC3)[nH]c12 [Compound 1020-28, (E)-4-(2-Cyclopropyl-4-(hex-3-en-3-yl)-1H-benzo[d]imidazol-6-yl)-3,5-dimethylisoxazole] | 7.29 | –
29 | CCC(CC)c1cc(-c2c(C)noc2C)cc2[nH]c(C3CC3)nc12 [Compound 1020-120, 4-(2-Cyclopropyl-4-(pentan-3-yl)-1H-benzo[d]imidazol-6-yl)-3,5-dimethylisoxazole] | 7.31 | –
30 | Cc1noc(C)c1-c1cc(S(=O)(=O)NC2CCCC2)c2nc(NCC(F)(F)F)[nH]c2c1 [Compound 1020-148] | 6.31 | –
31 | Cc1noc(C)c1-c1cc(S(=O)(=O)NC2CCCC2)c2nc(Cc3ccccc3)[nH]c2c1 [Compound 1020-141, 2-Benzyl-N-cyclopentyl-6-(3,5-dimethylisoxazol-4-yl)-1H-benzo[d]imidazole-4-sulfonamide] | 6.05 | –
